According to ChEMBL document CHEMBL1201862, “PubChem BioAssay data set” (2004):
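Five concentrations, 48 hours, 96-well plates. Abbreviation: GI50, concentration required for 50% inhibition of growth.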 Active and inactive are the calls of the source. Cut-off read from the data, not from the text of the source: active = GI50 up to about 1.1 µM and inactive = higher.

How the values were obtained:
Assay in all cases: NCI anticancer screen, dose series, 48 h
OVCAR-8 = test system: OVCAR-8
HOP-62 = test system: HOP-62
KM12 = test system: KM12
SK-OV-3 = test system: SK-OV-3
OVCAR-5 = test system: OVCAR-5
786-0 = test system: 786-0
LXFL 529 = test system: LXFL 529
KM-20L2 = test system: KM-20L2
SF-295 = test system: SF-295
DMS-114 = test system: DMS-114
NCI-H522 = test system: NCI-H522
SF-539 = test system: SF-539
NCI-H226 = test system: NCI-H226
HCC 2998 = test system: HCC 2998
SNB-19 = test system: SNB-19
XF498 = test system: XF498
HCT-116 = test system: HCT-116
CAKI-1 = test system: CAKI-1
DMS-273 = test system: DMS-273
SK-MEL-2 = test system: SK-MEL-2
UACC-257 = test system: UACC-257
COLO 205 = test system: COLO 205
LOX IMVI = test system: LOX IMVI
CCRF-CEM = test system: CCRF-CEM
SW-620 = test system: SW-620
SNB-75 = test system: SNB-75
A498 = test system: A498
HL-60 = test system: HL-60
TK-10 = test system: TK-10
IGROV-1 = test system: IGROV-1
SK-MEL-5 = test system: SK-MEL-5
RPMI-8226 = test system: RPMI-8226
DLD-1 = test system: DLD-1
A549 = test system: A549
RXF 393 = test system: RXF 393
Malme-3M = test system: Malme-3M
SF-268 = test system: SF-268
NCI-H460 = test system: NCI-H460
RXF 631 = test system: RXF 631
HCT-15 = test system: HCT-15
OVCAR-3 = test system: OVCAR-3
UO-31 = test system: UO-31
EKVX = test system: EKVX
HT-29 = test system: HT-29
SR = test system: SR
U-251 = test system: U-251
SN12C = test system: SN12C
M19-MEL = test system: M19-MEL
MOLT-4 = test system: MOLT-4
UACC-62 = test system: UACC-62
OVCAR-4 = test system: OVCAR-4
SK-MEL-28 = test system: SK-MEL-28
ACHN = test system: ACHN
M14 = test system: M14
NCI-H23 = test system: NCI-H23
HOP-92 = test system: HOP-92
HOP-18 = test system: HOP-18
K562 = test system: K562
SNB-78 = test system: SNB-78

Cc1ccc(CCNC(=S)SCC(NC(=O)CCC(N)C(=O)O)C(=O)NCC(=O)O)cc1 (configuration not stated)
GI50 (OVCAR-8): 2 µM (inactive)
GI50 (HOP-62): 2.96 µM (inactive)
GI50 (KM12): 0.533 µM (active)
GI50 (SK-OV-3): 7.4 µM (inactive)
GI50 (OVCAR-5): 2.51 µM (inactive)
GI50 (786-0): 0.385 µM (active)
GI50 (LXFL 529): 0.75 µM (active)
GI50 (KM-20L2): 2.12 µM (inactive)
GI50 (SF-295): 2.81 µM (inactive)
GI50 (DMS-114): 0.873 µM (active)
GI50 (NCI-H522): 0.327 µM (active)
GI50 (SF-539): 1.48 µM (inactive)
GI50 (NCI-H226): 2.26 µM (inactive)
GI50 (HCC 2998): 2.04 µM (inactive)
GI50 (SNB-19): 2.17 µM (inactive)
GI50 (XF498): 1.49 µM (inactive)
GI50 (HCT-116): 2.17 µM (inactive)
GI50 (CAKI-1): 1.41 µM (inactive)
GI50 (DMS-273): 0.414 µM (active)
GI50 (SK-MEL-2): 0.385 µM (active)
GI50 (UACC-257): 1.99 µM (inactive)
GI50 (COLO 205): 2.51 µM (inactive)
GI50 (LOX IMVI): 0.388 µM (active)
GI50 (CCRF-CEM): 0.442 µM (active)
GI50 (SW-620): 0.767 µM (active)
GI50 (SNB-75): 0.435 µM (active)
GI50 (A498): 2.03 µM (inactive)
GI50 (HL-60): 0.51 µM (active)
GI50 (TK-10): 2.84 µM (inactive)
GI50 (IGROV-1): 2.11 µM (inactive)
GI50 (SK-MEL-5): 1.73 µM (inactive)
GI50 (RPMI-8226): 0.288 µM (active)
GI50 (DLD-1): 0.764 µM (active)
GI50 (A549): 3.57 µM (inactive)
GI50 (RXF 393): 0.718 µM (active)
GI50 (Malme-3M): 2.01 µM (inactive)
GI50 (SF-268): 2.7 µM (inactive)
GI50 (NCI-H460): 2.61 µM (inactive)
GI50 (RXF 631): 2.2 µM (inactive)
GI50 (HCT-15): 1.43 µM
GI50 (OVCAR-3): 2.17 µM (inactive)
GI50 (UO-31): 1.12 µM (inactive)
GI50 (EKVX): 6.19 µM (inactive)
GI50 (HT-29): 1.46 µM (inactive)
GI50 (SR): 2.13 µM (inactive)
GI50 (U-251): 1.87 µM (inactive)
GI50 (SN12C): 1.76 µM (inactive)
GI50 (M19-MEL): 1.7 µM (inactive)
GI50 (MOLT-4): 1.23 µM (inactive)
GI50 (UACC-62): 1.41 µM (inactive)
GI50 (OVCAR-4): 2.99 µM (inactive)
GI50 (SK-MEL-28): 2.75 µM (inactive)
GI50 (ACHN): 2.02 µM (inactive)
GI50 (M14): 1.22 µM (inactive)
GI50 (NCI-H23): 2.6 µM (inactive)
GI50 (HOP-92): 1.17 µM (inactive)
GI50 (HOP-18): 2.52 µM (inactive)
GI50 (K562): 0.398 µM (active)

COCOCCC#CCO
GI50 (OVCAR-8): > 100 µM (inactive)
GI50 (KM12): > 100 µM (inactive)
GI50 (SK-OV-3): > 100 µM (inactive)
GI50 (OVCAR-5): > 100 µM (inactive)
GI50 (786-0): > 100 µM (inactive)
GI50 (LXFL 529): 83.6 µM (inactive)
GI50 (KM-20L2): > 100 µM (inactive)
GI50 (SF-295): > 100 µM (inactive)
GI50 (DMS-114): > 100 µM (inactive)
GI50 (NCI-H522): 68.4 µM (inactive)
GI50 (SF-539): > 100 µM (inactive)
GI50 (HCC 2998): > 100 µM (inactive)
GI50 (SNB-19): > 100 µM (inactive)
GI50 (XF498): > 100 µM (inactive)
GI50 (HCT-116): 88.9 µM (inactive)
GI50 (SK-MEL-2): > 100 µM (inactive)
GI50 (UACC-257): > 100 µM (inactive)
GI50 (LOX IMVI): > 100 µM (inactive)
GI50 (CCRF-CEM): > 100 µM (inactive)
GI50 (SW-620): > 100 µM (inactive)
GI50 (SNB-75): > 100 µM (inactive)
GI50 (A498): > 100 µM (inactive)
GI50 (HL-60): > 100 µM (inactive)
GI50 (TK-10): > 100 µM (inactive)
GI50 (IGROV-1): > 100 µM (inactive)
GI50 (SK-MEL-5): 72.8 µM (inactive)
GI50 (RPMI-8226): > 100 µM (inactive)
GI50 (DLD-1): > 100 µM (inactive)
GI50 (A549): > 100 µM (inactive)
GI50 (RXF 393): > 100 µM (inactive)
GI50 (Malme-3M): > 100 µM (inactive)
GI50 (SF-268): > 100 µM (inactive)
GI50 (NCI-H460): > 100 µM (inactive)
GI50 (HCT-15): > 100 µM
GI50 (OVCAR-3): > 100 µM (inactive)
GI50 (UO-31): > 100 µM (inactive)
GI50 (EKVX): > 100 µM (inactive)
GI50 (HT-29): > 100 µM (inactive)
GI50 (SR): 83.8 µM (inactive)
GI50 (SNB-78): > 100 µM (inactive)
GI50 (U-251): > 100 µM (inactive)
GI50 (SN12C): > 100 µM (inactive)
GI50 (MOLT-4): > 100 µM (inactive)
GI50 (UACC-62): > 100 µM (inactive)
GI50 (SK-MEL-28): > 100 µM (inactive)
GI50 (ACHN): > 100 µM (inactive)
GI50 (M14): > 100 µM (inactive)
GI50 (NCI-H23): 32.4 µM (inactive)
GI50 (HOP-92): > 100 µM (inactive)
GI50 (HOP-18): > 100 µM (inactive)
GI50 (K562): > 100 µM (inactive)

Cc1ccc(-c2cc(=O)c3cc(C)c(C)c(C(=O)O)c3o2)cc1N
GI50 (OVCAR-8): > 100 µM (inactive)
GI50 (KM12): > 100 µM (inactive)
GI50 (SK-OV-3): > 100 µM (inactive)
GI50 (OVCAR-5): > 100 µM (inactive)
GI50 (786-0): > 100 µM (inactive)
GI50 (LXFL 529): > 100 µM (inactive)
GI50 (KM-20L2): > 100 µM (inactive)
GI50 (SF-295): > 100 µM (inactive)
GI50 (DMS-114): > 100 µM (inactive)
GI50 (NCI-H522): > 100 µM (inactive)
GI50 (SF-539): > 100 µM (inactive)
GI50 (NCI-H226): > 100 µM (inactive)
GI50 (SNB-19): > 100 µM (inactive)
GI50 (XF498): > 100 µM (inactive)
GI50 (HCT-116): > 100 µM (inactive)
GI50 (CAKI-1): > 100 µM (inactive)
GI50 (SK-MEL-2): > 100 µM (inactive)
GI50 (UACC-257): > 100 µM (inactive)
GI50 (COLO 205): > 100 µM (inactive)
GI50 (LOX IMVI): > 100 µM (inactive)
GI50 (CCRF-CEM): > 100 µM (inactive)
GI50 (SW-620): > 100 µM (inactive)
GI50 (SNB-75): > 100 µM (inactive)
GI50 (TK-10): > 100 µM (inactive)
GI50 (IGROV-1): > 100 µM (inactive)
GI50 (SK-MEL-5): > 100 µM (inactive)
GI50 (RPMI-8226): > 100 µM (inactive)
GI50 (DLD-1): > 100 µM (inactive)
GI50 (A549): > 100 µM (inactive)
GI50 (RXF 393): > 100 µM (inactive)
GI50 (Malme-3M): > 100 µM (inactive)
GI50 (SF-268): > 100 µM (inactive)
GI50 (NCI-H460): > 100 µM (inactive)
GI50 (RXF 631): > 100 µM (inactive)
GI50 (HCT-15): > 100 µM
GI50 (OVCAR-3): > 100 µM (inactive)
GI50 (UO-31): > 100 µM (inactive)
GI50 (EKVX): > 100 µM (inactive)
GI50 (HT-29): > 100 µM (inactive)
GI50 (SNB-78): > 100 µM (inactive)
GI50 (U-251): > 100 µM (inactive)
GI50 (SN12C): > 100 µM (inactive)
GI50 (M19-MEL): > 100 µM (inactive)
GI50 (MOLT-4): > 100 µM (inactive)
GI50 (UACC-62): > 100 µM (inactive)
GI50 (OVCAR-4): > 100 µM (inactive)
GI50 (SK-MEL-28): > 100 µM (inactive)
GI50 (ACHN): > 100 µM (inactive)
GI50 (M14): > 100 µM (inactive)
GI50 (NCI-H23): > 100 µM (inactive)
GI50 (HOP-18): > 100 µM (inactive)
GI50 (K562): > 100 µM (inactive)
